Results published in PMC9455738, “Low-Dose Near-Infrared Light-Activated Mitochondria-Targeting Photosensitizers for PDT Cancer Therapy” (International Journal of Molecular Sciences, 2022).
Read-outs that look alike come from different tables or passages of the source.

How the values were obtained:
Format in all cases: cell-based, human
[1] = tested on: A2780/CP70 cells; assay: Resazurin cytotoxicity, dark and after white light projector irradiation (>600 nm), A2780/CP70
Procedure: (§1) Therefore, the cytotoxicity of the Pc-based compounds was evaluated against different cell lines both under irradiation and in the dark. Compounds LC31, MLC31, and DMLC31Pt, as well as cisplatin were screened against several cancer cell lines representative of human cervical cancer (HeLa), cisplatin-sensitive human ovarian carcinoma (A2780), cisplatin-resistant ovarian endometrioid adenocarcinoma (A2780/CP70), and non-cancerous fibroblast (MRC-5) cell lines. […]
(§2) Human cervical carc in oma cells (HeLa) were cultured in DMEM (Gibco) supplemented with 5% fe t a l calf serum (FCS, Gibco), 100 U/mL penicillin, 100 µg/mL st re pto myc i n . The normal human fe t a l lung fibroblast cell line (MRC‐5) wa s grown in MEM medium (Gibco) supplemented with 10% FCS (Gibco), penicillin (100 U/mL), and st re pto myc i n (100 µg/mL). The human ovarian carc in oma A2780 cell line and a cisplatin‐resistant subline CP70 were cultured in RPMI‐1640 medium (Gibco) supplemented with 10% FCS (Gibco), penicillin (100 U/mL), and st re pto myc in (100 μg/mL). The cells were cultured at 37 °C an d in 5% CO2 humidified at mo sph e re .
(§3) Cy to toxicit y Determination
(§4) The c y totoxic ity of the PSs in the dark and upon light irradiation was evaluated in several cell lines, using a re sa zu r in‐based fluorometric cell viability assay (Sigma‐Aldrich, Darmstadt, Germany). Stock solutions of the Pc agents (5 mM) were prepared in DMF and sto re d in the dark. The sto c k solutions were further diluted with co mp l ete medium to the desired working concentrations. Fo r an exp eriment , 100 µL aliquots of cells in growth medium were seeded in 96‐well plates (density of 2.5 × 10^3 cells/well fo r HeLa, 4 × 10^3 cells/well fo r A2780, and 1.5 × 10^3 cells/well fo r MRC‐5 cells) and incubated at 37 °C, 5% CO2 and 100% humidity. […] At the end of the incubation period, fluorescence of the highly re d fluorescent re so r u f in product (λex = 540 nm, λem = 590 nm) was quantified using a SpectraMax M5 microplate re a d e r (Molecular Device, San Jose, USA). […]

[2] = tested on: A2780 cells; assay: Resazurin cytotoxicity, dark and after white light projector irradiation (>600 nm), A2780
Procedure: as §1, §2, §3, §4

[3] = tested on: HeLa cells; assay: Resazurin cytotoxicity, dark and after white light projector irradiation (>600 nm), HeLa
Procedure: as §1, §2, §3, §4

[4] = tested on: MRC-5 cells; assay: Resazurin cytotoxicity, dark and after white light projector irradiation (>600 nm), MRC-5
Procedure: as §1, §2, §3, §4

In the case of N.N.[Cl][Pt][Cl] [cisplatin, Cis-[PtCl2(NH3)2]], the IC50 ([1]; A2780/CP70 (cisplatin resistant), 4 h incubation in the dark, read-out: IC50 A2780/CP70 Dark) is reported as 102 µM, the “p.i. A2780/CP70” value ([1]; A2780/CP70, 6.96 J cm^−2) is reported as 0.79 and the IC50 ([1]; A2780/CP70, 4 h incubation, white light projector cutoff below 600 nm, 5.8 mW cm^−2, 6.96 J cm^−2, read-out: IC50 A2780/CP70 Light) is reported as 129 µM. The “p.i. A2780” value ([2]; 6.96 J cm^−2) was 0.7, the IC50 ([2]; 4 h incubation in the dark, further 72 h incubation, read-out: IC50 A2780 Dark) was 2.8 µM and the IC50 ([2]; 4 h incubation, white light projector cutoff below 600 nm, 5.8 mW cm^−2, 6.96 J cm^−2, read-out: IC50 A2780 Light) was 4 µM. For the same compound, the “p.i. HeLa (phototoxicity index, IC50 dark / IC50 light)” value ([3]; 6.96 J cm^−2) was 0.76, the IC50 ([3]; 4 h incubation in the dark, further 72 h incubation, read-out: IC50 HeLa Dark) was 1.3 µM and the IC50 ([3]; 4 h incubation, white light projector cutoff below 600 nm, 5.8 mW cm^−2, 6.96 J cm^−2, further 72 h, read-out: IC50 HeLa Light) was 1.7 µM. The “p.i. MRC-5” value ([4]; MRC-5, 6.96 J cm^−2) was 1.2, the IC50 ([4]; MRC-5, 4 h incubation, white light projector cutoff below 600 nm, 5.8 mW cm^−2, 6.96 J cm^−2, read-out: IC50 MRC-5 Light) was 4.5 µM and the IC50 ([4]; MRC-5 non-cancerous fibroblast, 4 h incubation in the dark, read-out: IC50 MRC-5 Dark) was 5.4 µM.
